In US6291405A, “Glycol based drilling fluid” (M-I LLC, priority 1998, dated 2001):

Legend:
[1] = Viscosity properties of glycols, Fann 35A viscometer readings; type: physicochemical
Experimental: Readings were taken on a Fann 35A viscometer at 600 and 300 rpm both at room temperature and 120° F.

[2] = cited from earlier work; for toxicity ranking: based on laboratory test data, direct ingestion; for LD50: single-dose oral
[3] = Gumbo shale sticking test, diethylene glycol/water plus 10% GMO; details: in words
Experimental: This test was conducted using the test method described in example 2, except each test sample contained 10% glycerol monooleate (GMO) as the antisticking agent.

| Molecule | Fann 35A viscometer reading ([1]; 120° F, 300 rpm) | Fann 35A viscometer reading ([1]; 120° F, 600 rpm) | Fann 35A viscometer reading ([1]; Room Temperature, 300 rpm) | Fann 35A viscometer reading ([1]; Room Temperature, 600 rpm) | toxicity ranking [2] | LD50 [2] | antisticking properties [3] |
| --- | --- | --- | --- | --- | --- | --- | --- |
| CC(CO)CO [2-Methyl Propyl 1,3-Diol, reference compound] | 42 | 80 | 216 | > 300 | – | – | – |
| OCCOCCO [Diethylene Glycol, diethylene glycol] | – | – | – | – | followed by diethylene, triethylene, and dipropylene glycols | 16-21 gm/KG | – |
| OCCO [Ethylene Glycol, ethylene glycol] | – | – | – | – | the most toxic | 6-12 gm/KG | – |
| OCC(O)CO [Glycerine, reference compound] | 135 | 262 | > 300 | > 300 | – | – | – |
| CC(O)CO (centres unmarked) [Propylene Glycol, propylene glycol] | 15 | 28 | 47 | 92 | the least toxic | 21-34 gm/KG | – |
| OCCOCCOCCO [Triethylene Glycol, triethylene glycol] | 16 | 31 | 42 | 83 | followed by diethylene, triethylene, and dipropylene glycols | 16-22 gm/KG | – |
| CC(O)COC(C)COC(C)CO (centres unmarked) [Tripropylene Glycol, tripropylene glycol] | 18 | 34 | 59 | 116 | the most toxic | – | – |
| CCCCCCCC/C=C\CCCCCCCC(=O)OCC(O)CO (centres unmarked) [glycerol monooleate] | – | – | – | – | – | – | improved the antisticking properties of the diethylene glycol fluids |
| butylene glycol | – | – | – | – | the least toxic | 23-30 gm/KG | – |
| dipropylene glycol | 21 | 41 | 82 | 163 | followed by diethylene, triethylene, and dipropylene glycols | ~ 15 gm/KG | – |
